# Reference: patent US8227469B2, “Vanilloid receptor ligands and their use in treatments” (Amgen Inc., priority 2004, dated 2012)
row,melting point,SMILES
1,206 to 207 °C,"C[C@H](c1ccc(F)cc1)N1CCN(c2cc(Nc3ccc4cccnc4c3)ncn2)CC1 [Example 4, (6-{4-[(1R)-1-(4-Fluorophenyl)-ethyl]-piperazin-1-yl}-pyrimidin-4-yl)-quinolin-7-yl-amine]"
2,206 to 207 °C,"C[C@@H](c1ccc(F)cc1)N1CCN(c2cc(Nc3ccc4cccnc4c3)ncn2)CC1 [Example 5, (6-{4-[(1S)-1-(4-Fluorophenyl)-ethyl]-piperazin-1-yl}-pyrimidin-4-yl)-quinolin-7-yl-amine]"
3,> 200 °C (dec.),"CC(=O)Nc1nc2c(Oc3cc(C4=CCC(C(C)(C)C)CC4)ncn3)cccc2s1 (stereo not drawn) [Example 8, N-{4-[6-(4-tert-Butyl-cyclohex-1-enyl)-pyrimidin-4-yloxy]-benzothiazol-2-yl}-acetamide]"
